Experimental data from paper PMC3921138, “Identification and Biochemical Characterization of Four Wood-Associated Glucuronoxylan Methyltransferases in Populus” (PLoS ONE, 2014).

How the values were obtained:
Test in all cases: radiometric […]-methyl transfer, Lineweaver-Burk
Assay type in all cases: biochemical
Conditions in all cases: co-substrate S-[14C-methyl]adenosylmethionine; 100 mM Tris-HCl pH 8.0, 1 mM CoCl2, 0.5% Triton X-100; temperature of kinetic assay not stated; read-out: apparent K m
PtrGXM2 = molecular target: T1, PtrGXM2 (Populus trichocarpa, UniProt W8JCL4)
T1 construct: gene GXM2; transmembrane domain removed; E. coli; full-length start MRPKSQQ, recombinant start SSSQESS, C-terminus DRPFCPE (translated from primers)
T1 sequence (W8JCL4 33-288): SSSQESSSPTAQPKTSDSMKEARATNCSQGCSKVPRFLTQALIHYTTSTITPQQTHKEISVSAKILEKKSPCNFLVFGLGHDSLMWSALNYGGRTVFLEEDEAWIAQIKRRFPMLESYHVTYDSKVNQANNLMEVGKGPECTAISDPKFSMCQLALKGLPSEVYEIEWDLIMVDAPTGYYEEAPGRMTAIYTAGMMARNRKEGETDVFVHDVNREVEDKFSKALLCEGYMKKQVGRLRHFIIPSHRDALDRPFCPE

PtrGXM3 = molecular target: T2, PtrGXM3 (Populus trichocarpa, UniProt A9PC88)
T2 construct: gene GXM3; transmembrane domain removed; E. coli; full-length start MRPNKNQ, recombinant start SSPRSNP, C-terminus SGRPFCP (translated from primers)
T2 sequence (A9PC88 34-304): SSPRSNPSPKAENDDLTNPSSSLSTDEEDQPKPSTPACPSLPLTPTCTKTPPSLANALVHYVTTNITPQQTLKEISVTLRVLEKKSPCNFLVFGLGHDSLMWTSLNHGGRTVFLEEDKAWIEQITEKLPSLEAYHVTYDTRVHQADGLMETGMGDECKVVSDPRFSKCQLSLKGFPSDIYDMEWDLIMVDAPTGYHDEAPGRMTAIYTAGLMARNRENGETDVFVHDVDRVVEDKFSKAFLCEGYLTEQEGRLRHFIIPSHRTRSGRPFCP

PtrGXM1 = molecular target: T3, PtrGXM1 (Populus trichocarpa, UniProt W8JDL1)
T3 construct: gene GXM1; transmembrane domain removed; E. coli; full-length start MRPKGQ, recombinant start PSSQESP, C-terminus DRPFCPE (translated from primers)
T3 sequence (W8JDL1 33-288): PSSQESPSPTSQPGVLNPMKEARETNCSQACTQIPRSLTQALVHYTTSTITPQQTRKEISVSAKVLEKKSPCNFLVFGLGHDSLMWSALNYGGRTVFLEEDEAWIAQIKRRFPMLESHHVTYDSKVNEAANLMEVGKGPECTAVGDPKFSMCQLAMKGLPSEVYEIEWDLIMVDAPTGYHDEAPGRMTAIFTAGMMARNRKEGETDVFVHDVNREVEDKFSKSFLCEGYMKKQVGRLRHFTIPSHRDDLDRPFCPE

PtrGXM4 = molecular target: T4, PtrGXM4 (Populus trichocarpa, UniProt W8JN21)
T4 construct: gene GXM4; transmembrane domain removed; E. coli; full-length start MRSKNQS, recombinant start SPRPNSS, C-terminus SGKPFCP (translated from primers)
T4 sequence (W8JN21 34-301): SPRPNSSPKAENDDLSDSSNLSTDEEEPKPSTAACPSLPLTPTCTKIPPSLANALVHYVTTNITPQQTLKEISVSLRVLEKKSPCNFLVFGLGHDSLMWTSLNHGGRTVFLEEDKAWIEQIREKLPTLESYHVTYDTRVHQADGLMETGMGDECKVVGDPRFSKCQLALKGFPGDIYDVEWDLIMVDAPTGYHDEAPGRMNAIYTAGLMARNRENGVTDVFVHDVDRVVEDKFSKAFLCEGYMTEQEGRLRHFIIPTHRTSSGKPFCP

- Km (PtrGXM2): 3980 µM
- Km (PtrGXM3): 300 µM
- Km (PtrGXM1): 3250 µM
- Km (PtrGXM4): 290 µM
Substance: GlcA-substituted Xyl4
